# Assay results: US11472845B2, “Antitumor peptide and use thereof” (TOAGOSEI CO., LTD., priority 2019, dated 2022)
# Like-named read-outs stand apart in the source and are kept apart here. Ends that are not written are not given here.
# Key:
# [1] = system: human alveolar basal epithelial adenocarcinoma cell lines (A549); assay type: cell-based; details: for Cell viability (%) of test cells: human, 48 h
# Experimental: (§1) The antitumor activity of Sample 1 synthesized in the above Test Example 1 with respect to human-derived cultured tumor cells was evaluated. Currently commercially available human gastric cancer cell lines (FU97), human alveolar basal epithelial adenocarcinoma cell lines (A549), human breast cancer cell lines (MDA-MB-231), and human melanoma cell lines (A375) were prepared as test tumor cells. In addition, normal human mammary epithelial cell culture lines (MCF-12F) were prepared for comparison. An RPMI-1640 culture medium including 2 mM of L-glutamine, 1 mM of sodium pyruvate, 10 mM of HEPES, 4,500 mg/mL of glucose, 50 unit/mL of penicillin, 50 μg/mL of streptomycin, and 10% FBS (product, commercially available from Wako Pure Chemical Industries, Ltd.). The above five types of cell lines were cultured in respective designated culture solutions. The cell lines were cultured so that the number of cells per well in a 96-hole (well) plate was about 5×10^3. Here, an amount of the culture solution per well was 100 μL. The 96-well plate was then placed in a CO2 incubator. Then, pre-incubation was performed under conditions of 37° C. and 5% CO2 for about 1 day (about 23 hours). Then, regarding the culture solution for the peptide addition area, culture solutions containing Sample 1 for each concentration were prepared so that the concentration of Sample 1 was 6.25 μM, 12.5 μM or 25 μM and supplied to wells (that is, wells after the pre-incubation) in which 90 μL of cells to be evaluated were cultured in each well. On the other hand, regarding the culture solution for the comparative test area, a culture solution to which no Sample 1 was added was prepared, and supplied to wells (that is, wells after the pre-incubation) in which 90 μL of cells to be evaluated were cultured in each well. The 96-well plate was then placed in a CO2 incubator, and incubated under conditions of 37° C. and 5% CO2 for 48 hours. […] Then, the absorbance at a wavelength of 450 nm (value corrected by the absorbance at a wavelength of 620 nm: A450-A620) was measured based on the reduction of the tetrazolium salt in the culture solution. Then, the cell viability was calculated according to a colorimetric method. In the test areas (test areas 1 to 3) in the peptide addition area, the cell viability of each of the above five types of cell lines was calculated as a relative value when a measured value (measurement absorbance) of the comparative test area in the same cell lines was set as 100%. That is, regarding each of the above five types of cell lines, the cell viability (%) was calculated by dividing the measurement absorbance of the test areas (test areas 1 to 3) in the peptide addition area by the measurement absorbance of the comparative test area in the same cell lines and multiplying by 100.
# [2] = system: human melanoma cell lines (A375); assay type: cell-based; details: for Cell viability (%) of test cells: human, 48 h
# Experimental: as §1, with “A DMEM” for “An RPMI-1640”, “including” for “including 2 mM of L-glutamine, 1 mM of sodium pyruvate, 10 mM of HEPES, 4,500 mg/mL of glucose,”, “FBS.” for “FBS (product, commercially available from Wako Pure Chemical Industries, Ltd.).”, “hours. After the incubation for 48 hours, the culture solution in each well was replaced with […] a fresh culture solution containing no Sample 1.” for “hours.”
substance,measurement,setting,value
MACLGFQRHKAQLNLATRTWPCTLLFFLLFIPVFCKKRTLRKTDRKKR-NH2 (cysteines drawn unpaired) [Sample 1],Specific cell viability of test tumor cells,"[1]; A549, 12.5 μM Sample 1, (cell viability of test tumor cells)/(cell viability of MCF-12F cells)×100",36.0
same,Cell viability (%) of test cells,[1]; 6.25 μM,64.7%
same,Cell viability (%) of test cells,[1]; 12.5 μM,41.1%
same,Cell viability (%) of test cells,[1]; 25 μM,24.9%
same,Specific cell viability of test tumor cells,"[2]; A375, 12.5 μM Sample 1, (cell viability of test tumor cells)/(cell viability of MCF-12F cells)×100",35.7
same,Cell viability (%) of test cells,[2]; 6.25 μM,57.8%
same,Cell viability (%) of test cells,[2]; 12.5 μM,40.8%
same,Cell viability (%) of test cells,[2]; 25 μM,31.6%
